Patent publication US20260166159A1, “KRAS G12D DEGRADATION AGENT, AND PREPARATION METHOD AND USE THEREFOR” (LEADINGTAC PHARMACEUTICAL (SHAOXING) CO., LTD., priority 2022, published 2026)
pIC50: −log10 of the molar value.

Experiments:
[1] = test system: KRAS G12D mutant human gastric cancer cell AGS; test: 3D cell proliferation inhibition assay, AGS; assay type: cell-based; settings: 168 h, 7 days, CTG, class symbols
Outline: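 For this 7-day anchorage-independent assay, 5×10^2 cells per well were exposed to 10000–0.026 nM test compound with 0.2% DMSO at 37 °C. ATP-based luminescence (CTG) gave viability, and percent inhibition versus DMSO controls was curve-fitted to obtain IC50.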

[2] = biological target: T1, Human KRAS G12D 6His-tagged (Homo sapiens, UniProt P01116, G12D); test: KRAS-G12D/GTP binding assay (HTRF)
T1 construct: purchased PerkinElmer
Method: In this method, the inhibitory effects of the compounds on the binding of KRAS-G12D to GTP were assayed by a homogeneous time-resolved fluorescence (HTRF) technique using a KRAS-G12D/GTP binding assay kit (PerkinElmer).
The experimental procedures were as follows (refer to the kit instructions for detailed test methods): the compounds of the present disclosure were each firstly dissolved in DMSO at a concentration of 20 mM, and then diluted in an equal gradient with a buffer in the kit, so that the final concentrations of the test compounds in the reaction system were in a range of 0.02-5000 nM, and the final concentration of DMSO was 0.5%. 5 μL of each compound was incubated with 5 μL of 1× Human KRAS G12D 6His-tagged (PerkinElmer), 5 μL of 1×6His Eu Cryptate Antibody (PerkinElmer), and 5 μL of 1×GTP Red reagent (PerkinElmer) in a 384-well plate (Greiner) at 25° C. for 1 h. After the incubation was completed, the fluorescence intensity of each well was measured at the excitation wavelength of 337 nm and the emission wavelengths of 620 nm and 665 nm with an EnVision microplate reader (PerkinElmer) in the HTRF mode, and Ratio values were calculated using the formula: Ratio=(665 nm/620 nm)×[…]. The inhibition rates of the compounds at each concentration were calculated by comparing the fluorescence intensity ratio with that of the control group. Then non-linear curve fittings for logarithmic concentration-inhibition rate were performed using the GraphPad Prism 8 analysis software, and the IC50 values of the compounds were obtained (Table 2).

[3] = test system: KRAS G12D mutant human lung cancer cell A427; test: 3D cell proliferation inhibition assay, A427; assay type: cell-based; settings: A-427, 168 h, A427, 7 days, CTG, class symbols
Excerpt: (§1) The inhibitory effects of the compounds on 3D cell proliferation were investigated on KRAS G12D mutant human lung cancer cell A427, KRAS G12D mutant human gastric cancer cell AGS, KRAS G12D mutant human metastatic pancreatic cancer cell AsPc-1, KRAS G12D mutant human pancreatic cancer cell Panc 04.03, KRAS G12D mutant human pancreatic cancer cell HPAC, KRAS G12V mutant human lung squamous cell carcinoma cell SW900, and KRAS WT human gastric cancer cell MKN1. The specific procedures were as follows:
(§2) 10 μL of each compound solution diluted in a gradient was added to corresponding wells of a 96-well low-adsorption microplate (PerkinElmer), so that the final concentrations of the test compounds in the reaction system were in a range of 10000-0.026 nM. The final concentration of DMSO was 0.2%. Then 90 µL of cells were correspondingly seeded into each well to achieve a cell density of 5×10^2 cells/well (the cell density of SW900 was 5×10^1 cells/well, and the cell density of MKN1 was 1×10^3 cells/well). In addition to test wells for the test compounds, both a DMSO control well and a medium control well were set, with the DMSO control well containing DMSO and cells and the medium well containing only a medium. After the sample loading, the 96-well low-adsorption microplate was incubated in an incubator at 37° C. with 5% carbon dioxide for 7 days. After 7 days, the microplate was taken out, and 100 μL of CTG reagent (Promega) was added to each well. The plate was incubated at room temperature for 60 min and read on a microplate reader EnVision by the chemiluminescence program. The inhibition rates of the compounds at each concentration were calculated using the formula for the percentage inhibition of cell proliferation: inhibition rate %=(mean value of DMSO control group−single concentration reading value of compound)/(mean value of DMSO control group−mean value of medium control group)×100. Then non-linear curve fittings for logarithmic concentration-inhibition rate were performed by GraphPad Prism 8, and the IC50 values of the compounds were obtained (Table 5).

[4] = biological target: T2, KRAS-G12D (Homo sapiens, UniProt P01116, G12D); test: KRAS-G12D degradation assay (Western Blot), A-427 cells; assay type: cell-based; settings: A427 cells, 24 h, class symbols; for Dmax: A-427
T2 construct: endogenous in cells; host or cells: A-427 (ATCC), AGS, AsPc-1, Panc 04.03
Outline: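 Western blotting of lysates (5 μg protein) quantified KRAS against a β-actin reference after 24 h exposure to compound at final 0.03–3000 nM in 0.25% DMSO. Cells were A-427, AGS, AsPc-1 or Panc 04.03, all KRAS G12D, at 5×10^5/well. Degradation versus control yielded DC50 and Dmax.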

[5] = test system: KRAS G12D mutant human pancreatic cancer cell HPAC; test: 3D cell proliferation inhibition assay, HPAC; assay type: cell-based; settings: 168 h, 7 days, CTG
Excerpt: as §1, §2

[6] = test system: KRAS G12D mutant human metastatic pancreatic cancer cell AsPc-1; test: 3D cell proliferation inhibition assay, AsPc-1; assay type: cell-based; settings: ASPC1, 168 h, AsPc-1, 7 days, CTG, numeric values
Excerpt: as §1, §2

T1 sequence (P01116 1-188 isoform P01116-2 G12D): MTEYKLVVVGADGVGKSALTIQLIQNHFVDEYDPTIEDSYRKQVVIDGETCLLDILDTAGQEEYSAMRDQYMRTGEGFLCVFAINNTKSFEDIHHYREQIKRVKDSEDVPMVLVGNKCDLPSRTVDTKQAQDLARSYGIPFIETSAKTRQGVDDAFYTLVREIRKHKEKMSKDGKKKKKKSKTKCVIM
T2 sequence (P01116 1-188 isoform P01116-2 G12D): as above

`C#Cc1c(F)ccc2cc(O)cc(-c3ncc4c(N5CC6CCC(C5)N6)nc(OCC5(CN6CCC(CN7CCC8(CC7)CCN(C(=O)c7ccc(OC)c(N9CCC(=O)NC9=O)c7)CC8)CC6)CC5)nc4c3F)c12` [Example 38, 1-(5-(9-((1-((1-(((4-(3,8-diazabicyclo[3.2.1]octan-3-yl)-7-(8-ethynyl-7-fluoro-3-hydroxynaphthalen-1-yl)-8-fluoropyrido[4,3-d]pyrimidin-2-yl)oxy)methyl)cyclopropyl)methyl)piperidin-4-yl)methyl)-3,9-diazaspiro[5.5]undecane-3-carbonyl)-2-methoxyphenyl)dihydropyrimidine-2,4(1H,3H)-dione] was tested, and the pIC50 [1] was ≥ 7.30, the pIC50 ([2]; class symbols) was ≥ 7.30 and the pIC50 [3] was ≥ 7.30. For the same molecule, the DC50 [4] was ≤ 50 nM and the Dmax [4] was 80 to 100%.
In the case of `C#Cc1c(F)ccc2cc(O)cc(-c3ncc4c(N5CC6CCC(C5)N6)nc(OCC5(CN6CC(CN7CCC8(CC7)CCN(C(=O)c7ccc(OC)c(N9CCC(=O)NC9=O)c7)CC8)C6)CC5)nc4c3F)c12` [Example 40, 1-(5-(9-((1-((1-(((4-(3,8-diazabicyclo[3.2.1]octan-3-yl)-7-(8-ethynyl-7-fluoro-3-hydroxynaphthalen-1-yl)-8-fluoropyrido[4,3-d]pyrimidin-2-yl)oxy)methyl)cyclopropyl)methyl)azetidin-3-yl)methyl)-3,9-diazaspiro[5.5]undecane-3-carbonyl)-2-methoxyphenyl)dihydropyrimidine-2,4(1H,3H)-dione], the pIC50 [1] was 6.30 to 7.00, the pIC50 ([2]; class symbols) was ≥ 7.30 and the pIC50 [3] was 5.00 to 6.00. For the same molecule, the DC50 [4] was 1000 to 10000 nM and the Dmax [4] was 30 to 50%.
With `Cc1ccc(C(=O)N2CCC3(CCC(CN4CCN(CC5(COc6nc(N7CC8CCC(C7)N8)c7cnc(-c8cccc9cccc(Cl)c89)c(F)c7n6)CC5)CC4)CC3)CC2)cc1N1CCC(=O)NC1=O` [Example 45, 1-(5-(9-((4-((1-(((4-(3,8-diazabicyclo[3.2.1]octan-3-yl)-7-(8-chloronaphthalen-1-yl)-8-fluoropyrido[4,3-d]pyrimidin-2-yl)oxy)methyl)cyclopropyl)methyl)piperazin-1-yl)methyl)-3-azaspiro[5.5]undecane-3-carbonyl)-2-methylphenyl)dihydropyrimidine-2,4(1H,3H)-dione] the pIC50 [1] was 7.00 to 7.30, the pIC50 ([2]; class symbols) was ≥ 7.30 and the pIC50 [3] was 7.00 to 7.30. The DC50 [4] was 1000 to 10000 nM and the Dmax [4] was < 30%.
`C#Cc1c(F)ccc2cc(O)cc(-c3ncc4c(N5CC6CCC(C5)N6)nc(OCC56CC(CN7CCN(CCC8CCC9(CC8)CCN(C(=O)c8ccc(Cl)c(N%10CCC(=O)NC%10=O)c8)CC9)CC7)(C5)C6)nc4c3F)c12` [Example 56, 1-(5-(9-(2-(4-((3-(((4-(3,8-diazabicyclo[3.2.1]octan-3-yl)-7-(8-ethynyl-7-fluoro-3-hydroxynaphthalen-1-yl)-8-fluoropyrido[4,3-d]pyrimidin-2-yl)oxy)methyl)bicyclo[1.1.1]pentan-1-yl)methyl)piperazin-1-yl)ethyl)-3-azaspiro[5.5]undecane-3-carbonyl)-2-chlorophenyl)dihydropyrimidine-2,4(1H,3H)-dione] was tested, and the pIC50 [1] was ≥ 7.30, the pIC50 ([2]; class symbols) was 7.00 to 7.30 and the pIC50 [3] was 7.00 to 7.30. For the same molecule, the DC50 [4] was ≤ 50 nM and the Dmax [4] was 50 to 80%.
With `C#Cc1c(F)ccc2cc(O)cc(-c3ncc4c(N5CC6CCC(C5)N6)nc(OCC5(CN6CC7CC6CN7CC6CCC7(CC6)CCN(C(=O)c6ccc(Cl)c(N8CCC(=O)NC8=O)c6)CC7)CC5)nc4c3F)c12` (stereo not drawn) [Example 59, 1-(5-(9-((5-((1-(((4-(3,8-diazabicyclo[3.2.1]octan-3-yl)-7-(8-ethynyl-7-fluoro-3-hydroxynaphthalen-1-yl)-8-fluoropyrido[4,3-d]pyrimidin-2-yl)oxy)methyl)cyclopropyl)methyl)-2,5-diazabicyclo[2.2.1]heptan-2-yl)methyl)-3-azaspiro[5.5]undecane-3-carbonyl)-2-chlorophenyl)dihydropyrimidine-2,4(1H,3H)-dione] the pIC50 [1] was ≥ 7.30, the pIC50 ([2]; class symbols) was ≥ 7.30 and the pIC50 [3] was 6.30 to 7.00. The DC50 [4] was 1000 to 10000 nM and the Dmax [4] was < 30%.
For `C#Cc1c(F)ccc2cc(O)cc(-c3ncc4c(N5CC6CCC(C5)N6)nc(OCCN5CCN(CCC6CCC7(CC6)CCN(C(=O)c6ccc(Cl)c(N8CCC(=O)NC8=O)c6)CC7)CC5)nc4c3F)c12` [Example 61, 1-(5-(9-(2-(4-(2-((4-(3,8-diazabicyclo[3.2.1]octan-3-yl)-7-(8-ethynyl-7-fluoro-3-hydroxynaphthalen-1-yl)-8-fluoropyrido[4,3-d]pyrimidin-2-yl)oxy)ethyl)piperazin-1-yl)ethyl)-3-azaspiro[5.5]undecane-3-carbonyl)-2-chlorophenyl)dihydropyrimidine-2,4(1H,3H)-dione], the pIC50 [1] was ≥ 7.30, the pIC50 ([2]; numeric values) was 7.68 and the pIC50 [3] was 6.30 to 7.00.
With `C#Cc1c(F)ccc2cc(O)cc(-c3ncc4c(N5CC6CCC(C5)N6)nc(OCC(CN5CCN(CC6CCC7(CC6)CCN(C(=O)c6ccc(OC)c(N8CCC(=O)NC8=O)c6)CC7)CC5)OC)nc4c3F)c12` (stereo not drawn) [Example 105, 1-(5-(9-((4-(3-((4-(3,8-diazabicyclo[3.2.1]octan-3-yl)-7-(8-ethynyl-7-fluoro-3-hydroxynaphthalen-1-yl)-8-fluoropyrido[4,3-d]pyrimidin-2-yl)oxy)-2-methoxypropyl)piperazin-1-yl)methyl)-3-azaspiro[5.5]undecane-3-carbonyl)-2-methoxyphenyl)dihydropyrimidine-2,4(1H,3H)-dione] the pIC50 [5] was 7.90 and the pIC50 [6] was 7.03.
